Measurements from the supplement of paper PMC10307832.

What was measured:
Assay in all cases: relative viability (nuclei count vs DMSO), 5 days (fraction); higher = more cells survive
[1] = compound: O=C(C[C@H]1NCCC[C@@H]1O)Cn1cnc2cc(Br)c(Cl)cc2c1=O (racemic) [Halofuginone] + CCNC(=O)c1noc(-c2cc(C(C)C)c(O)cc2O)c1-c1ccc(CN2CCOCC2)cc1 [Luminespib] (partner 0.01 µM)
Outline: (§1)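 A single step with final 0.05% Triton X-100, 1% formaldehyde and 1 ug/ml Hoechst fixed the cells and stained nuclei 5 days after treatment. Lung cancer cell lines in 1536-well plates had been treated by pin tool the day after seeding with one drug alone or a fixed anchor-drug dose plus five library-drug doses (not always all listed) in √10 steps, and nuclei were counted on 4× images. Relative viability is the ratio of nuclei in treated wells to nuclei in vehicle wells, taken as the median of duplicate plates.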

Cediranib + Alpelisib = compound: COc1cc2c(Oc3ccc4[nH]c(C)cc4c3F)ncnc2cc1OCCCN1CCCC1 [Cediranib] + Cc1nc(NC(=O)N2CCC[C@H]2C(N)=O)sc1-c1ccnc(C(C)(C)C(F)(F)F)c1 [Alpelisib] (partner 2 µM)
Outline: as §1

[2] = compound: O=C(C[C@H]1NCCC[C@@H]1O)Cn1cnc2cc(Br)c(Cl)cc2c1=O (racemic) [Halofuginone] + C[C@]1(O)C[C@@H](c2nc(-c3ccc4ccc(-c5ccccc5)nc4c3)c3c(N)nccn32)C1 [Linsitinib] (partner 1 µM)
Outline: as §1

Halofuginone + AZD7762 = compound: O=C(C[C@H]1NCCC[C@@H]1O)Cn1cnc2cc(Br)c(Cl)cc2c1=O (racemic) [Halofuginone] + NC(=O)Nc1cc(-c2cccc(F)c2)sc1C(=O)N[C@H]1CCCNC1 [AZD7762] (partner 0.2 µM)
Outline: as §1

Cell Line | relative viability ([1]; first compound 0.001 µM) | relative viability ([1]; first compound 0.003162 µM) | relative viability ([1]; first compound 0.01 µM) | relative viability ([1]; first compound 0.03162 µM) | relative viability ([1]; first compound 0.1 µM) | relative viability (Cediranib + Alpelisib; first compound 0.04 µM) | relative viability (Cediranib + Alpelisib; first compound 0.1265 µM) | relative viability (Cediranib + Alpelisib; first compound 0.4 µM) | relative viability (Cediranib + Alpelisib; first compound 1.265 µM) | relative viability (Cediranib + Alpelisib; first compound 4 µM) | relative viability ([2]; first compound 0.001 µM) | relative viability ([2]; first compound 0.003162 µM) | relative viability ([2]; first compound 0.01 µM) | relative viability ([2]; first compound 0.03162 µM) | relative viability ([2]; first compound 0.1 µM) | relative viability (Halofuginone + AZD7762; first compound 0.001 µM) | relative viability (Halofuginone + AZD7762; first compound 0.003162 µM) | relative viability (Halofuginone + AZD7762; first compound 0.01 µM) | relative viability (Halofuginone + AZD7762; first compound 0.03162 µM) | relative viability (Halofuginone + AZD7762; first compound 0.1 µM)
NCI-H1650 | 0.188 | 0.217 | 0.193 | 0.204 | 0.235 |  |  |  |  |  |  |  |  |  |  |  |  |  |  | 
NCI-H2009 | 1.07 | 1.04 | 1.03 | 0.904 | 0.692 | 1.18 | 1.13 | 1.09 | 1.16 | 1.14 | 1.27 | 1.12 | 1.19 | 0.872 | 0.81 |  |  |  |  | 
COR-L23 | 0.819 | 0.636 | 0.699 | 0.368 | 0.211 | 0.916 | 0.788 | 0.816 | 0.829 | 0.815 | 0.973 | 0.91 | 0.972 | 0.876 | 0.102 |  |  |  |  | 
NCI-H522 | 1.14 | 1.81 | 1.12 | 1.28 | 1.09 |  |  |  |  |  |  |  |  |  |  | 0.969 | 0.948 | 0.974 | 0.852 | 0.813
NCI-H1563 | 0.487 | 0.493 | 0.547 | 0.534 | 0.467 | 0.988 | 0.898 | 0.967 | 0.949 | 0.761 | 1.3 | 1.3 | 0.963 | 0.636 | 0.603 |  |  |  |  | 
SW 900 | 0.205 | 0.187 | 0.144 | 0.181 | 0.154 |  |  |  |  |  |  |  |  |  |  | 0.677 | 0.564 |  | 0.621 | 0.46
SK-LU-1 | 0.202 | 0.196 | 0.23 | 0.219 | 0.174 | 0.753 | 1.2 | 0.958 | 0.933 | 1.01 | 1.18 | 0.559 | 1.14 | 0.912 | 0.58 |  |  |  |  | 
NCI-H2228 | 0.136 | 0.139 | 0.12 | 0.118 | 0.126 | 0.955 | 0.85 | 0.791 | 0.929 | 0.826 | 0.589 | 0.926 | 0.69 | 0.394 | 0.199 |  |  |  |  | 
NCI-H1623 | 0.622 | 0.465 | 0.461 | 0.622 | 0.485 |  |  |  |  |  |  |  |  |  |  |  |  |  |  | 
IA-LM |  |  |  |  |  | 0.845 | 0.959 | 0.928 | 0.592 | 0.655 | 0.735 | 0.78 | 0.547 | 0.775 | 0.434 |  |  |  |  | 
EBC-1 |  |  |  |  |  | 0.857 | 1.01 | 0.762 | 0.719 | 1.02 | 0.959 | 1.07 | 0.784 | 0.656 | 0.251 |  |  |  |  | 
NCI-H1299 |  |  |  |  |  | 1.09 | 1.03 | 1.01 | 1.04 | 1.14 | 1.01 | 1.23 | 0.972 | 0.955 | 0.732 |  |  |  |  | 
